Test results published in patent US11160797B2, “Pyridinone derivatives and their use as selective ALK-2 inhibitors” (NOVARTIS AG, priority 2017, dated 2021).
Like-named read-outs stand apart in the source and are kept apart here.

Tests used:
[1] = target: T1, wild-type ALK2 (aa172-499) (Homo sapiens (Human), UniProt Q04771); experiment: Caliper biochemical peptide phosphorylation assay, ALK2
[2] = target: ALK2 FOP mutant (aa172-499 R206H) (Homo sapiens (Human), UniProt Q04771, R206H); experiment: Caliper biochemical peptide phosphorylation assay, ALK2 FOP
ALK2 FOP mutant (aa172-499 R206H), sequence (Q04771 172-499 R206H): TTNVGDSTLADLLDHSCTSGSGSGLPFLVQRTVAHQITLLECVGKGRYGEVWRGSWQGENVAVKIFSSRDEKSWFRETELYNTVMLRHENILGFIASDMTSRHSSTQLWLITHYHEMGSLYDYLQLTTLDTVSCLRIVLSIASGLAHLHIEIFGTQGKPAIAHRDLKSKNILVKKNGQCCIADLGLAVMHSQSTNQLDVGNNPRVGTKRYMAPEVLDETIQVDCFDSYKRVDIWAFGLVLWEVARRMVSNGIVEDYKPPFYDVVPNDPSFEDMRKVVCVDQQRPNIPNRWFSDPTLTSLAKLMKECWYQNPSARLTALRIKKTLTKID

ALK5 (aa162-503) = ALK5 (aa162-503) (Homo sapiens (Human), UniProt P36897); experiment: Caliper biochemical peptide phosphorylation assay, ALK5; conditions: 15 uM ATP
ALK5 (aa162-503), sequence (P36897 162-503): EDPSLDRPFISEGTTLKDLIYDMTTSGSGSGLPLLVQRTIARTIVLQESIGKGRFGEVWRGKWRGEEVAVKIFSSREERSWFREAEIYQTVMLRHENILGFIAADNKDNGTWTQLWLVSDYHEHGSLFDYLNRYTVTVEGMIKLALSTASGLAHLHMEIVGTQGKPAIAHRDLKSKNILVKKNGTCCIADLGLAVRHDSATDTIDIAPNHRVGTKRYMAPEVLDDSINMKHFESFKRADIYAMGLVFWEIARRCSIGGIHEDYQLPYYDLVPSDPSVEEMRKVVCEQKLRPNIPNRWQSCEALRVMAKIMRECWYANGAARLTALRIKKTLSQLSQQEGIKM
Excerpt: For all biochemical assays, human recombinant proteins were expressed in and purified from baculo virus transfected insect cells. The constructs comprised the GS-domain and kinase domain of wild-type ALK2 (aa172-499), ALK2 FOP mutant (aa172-499 R206H), ALK3 (aa198-525), ALK5 (aa162-503) and ALK6 (aa168-495).
A kinase selectivity panel which measures substrate peptide phosphorylation was set-up for wild-type ALK2 (aa172-499), ALK2 FOP mutant (aa172-499 R206H), ALK1 (aa166-493), ALK5 (aa162-503) and ALK6 (aa168-495). The technology used for the described assay is based on the separation and quantification of substrate and product in an electrical field. In the course of the kinase reaction the peptide substrate is phosphorylated by a kinase. […] Due to this difference in charge the phosphorylated und unphosphorylated peptides migrate with different velocities in an electrical field.
In the applied method, this separation takes place inside a chip that contains a complex capillary system for simultaneous analysis of 12 samples (“LabChip EZ Reader 12-sipper chip”, Caliper Technologies Corp., Mountain View, USA). In order to allow the detection and quantification of the peptides in the capillary system, the peptides carry a fluorescent label (fluorescein). With this label the peptides can be quantified by fluorescence intensity through the instruments laser and detection system (LC3000, Caliper Life Sciences).
The assays were performed in 384-well, low volume microtiter assay plates in a final reaction volume of 9 ul. Dose-response curves were generated by incubating 10 nM of each kinase together with 2 uM of the fluorescently labeled substrate peptide 5-Fluo-Ahx-[…]-T-[…]-amid (10 mM stock solution in DMSO) in 50 mM Hepes pH 7.5, 0.02% Tween 20, 0.02% BSA, 1 mM DTT, 10 uM Na3VO4, 10 mM ß-Glycerolphosphate, 1 mM MgCl2, 12 mM MnCl2 (ALK1 and ALK6 7 mM) and 15 uM ATP for 60 min at 30° C. in the presence or absence of compound diluted in DMSO.
Kinase reactions were terminated by adding 15 ul STOP buffer (100 mM HEPES pH 7.5, 5% DMSO, 0.1% Caliper coating reagent, 10 mM EDTA, and 0.015% Brij35.
Plates with terminated kinase reactions were transferred to the Caliper LC3000 workstation (Caliper Technologies Corp., Mountain View, USA) for reading. The relative amount of phosphorylated peptide r, was calculated using the heights of the substrate peak, s, and the product peak, p:r=p/(p+s).
IC50 values for a given antagonist correspond to the compound concentration needed to inhibit half of the maximum signal of the kinase reaction.

[3] = target: T1, wild-type ALK2 (aa172-499); experiment: ADPGlo biochemical autophosphorylation assay, ALK2; conditions: 15 uM ATP
[4] = tested on: HuH7 cells, BMP response element (BRE) luciferase reporter, BMP6 stimulated; experiment: BMP signaling reporter gene assay; assay type: cell-based; conditions: Homo sapiens, Huh-7; BMP6 100 ng/ml; read-out: MSD HuH7 cell BMP reporter IC50
ALK1 (aa166-493) = ALK1 (aa166-493) (Homo sapiens (Human), UniProt P37023); experiment: Caliper biochemical peptide phosphorylation assay, ALK1; conditions: 15 uM ATP
ALK1 (aa166-493), sequence (P37023 166-493): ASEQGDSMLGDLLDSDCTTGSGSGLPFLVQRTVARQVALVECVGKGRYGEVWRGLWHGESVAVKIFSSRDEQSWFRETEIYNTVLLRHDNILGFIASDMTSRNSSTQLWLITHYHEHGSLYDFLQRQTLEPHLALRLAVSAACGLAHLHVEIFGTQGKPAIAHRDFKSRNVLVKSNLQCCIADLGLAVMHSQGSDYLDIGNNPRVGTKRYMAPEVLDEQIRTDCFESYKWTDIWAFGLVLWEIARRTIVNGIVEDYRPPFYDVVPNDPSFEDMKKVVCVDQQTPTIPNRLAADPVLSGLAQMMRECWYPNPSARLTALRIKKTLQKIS

[5] = Caliper peptide phosphorylation, 15 uM ATP, read-out: ALK2 IC50
[6] = Caliper peptide phosphorylation, R206H, 15 uM ATP, read-out: ALK2 FOP EPK IC50

T1 sequence (Q04771 172-499): as the sequence (Q04771 172-499 R206H) above, with H35R counted along it

IC50 ([1]; read-out: IC50 in the ALK2 assay)	IC50 ([2]; read-out: IC50 in the ALK2-FOP assay)	Compound	IC50 (ALK5 (aa162-503))	IC50 [3]	IC50 [1, 5]	IC50 [4]	IC50 [2, 6]	IC50 (ALK1 (aa166-493))
> 1000 nM	> 1000 nM	CC(C)n1cc(-c2cncc(-c3cnc4c(c3)C(C)(C)C(=O)N4C)c2)ccc1=O [5-(1′-isopropyl-6′-oxo-1′,6′-dihydro-[3,3′-bipyridin]-5-yl)-1,3,3-trimethyl-1H-pyrrolo[2,3-b]pyridin-2(3H)-one]						
		CCN1C(=O)Cc2cc(-c3cncc(-c4ccc(=O)n(C(C)C)c4)c3)ccc21 [Example 20, 1-Ethyl-5-(1′-isopropyl-6′-oxo-1′,6′-dihydro-[3,3′-bipyridin]-5-yl)indolin-2-one]	2500 nM	110 nM	90 nM	140 nM	90 nM	
		CC(C)n1cc(-c2cncc(-c3ccc4c(c3)CC(=O)N4C)c2F)ccc1=O [Example 52, 5-(4-fluoro-1′-isopropyl-6′-oxo-1′,6′-dihydro-[3,3′-bipyridin]-5-yl)-1-methylindolin-2-one]	> 10000 nM	690 nM	380 nM		380 nM	3600 nM
		CC(C)n1cc(-c2cncc(-c3ccc4c(c3)CCCC(=O)N4C)c2)ccc1=O [Example 39, 7-(1′-isopropyl-6′-oxo-1′,6′-dihydro-[3,3′-bipyridin]-5-yl)-1-methyl-4,5-dihydro-1H-benzo[b]azepin-2(3H)-one]	1400 nM	89 nM	70 nM	110 nM	60 nM	350 nM
		CN1C(=O)Cc2cc(-c3cncc(-c4ccc(=O)n(C5CC5)c4)c3)ccc21 [Example 10, 5-(1′-cyclopropyl-6′-oxo-1′,6′-dihydro-[3,3′-bipyridin]-5-yl)-1-methylindolin-2-one]	> 10000 nM	710 nM	410 nM	730 nM	390 nM	2900 nM
		COCCN1C(=O)Cc2cc(-c3cncc(-c4ccc(=O)n(C(C)C)c4)c3)cnc21 [Example 27, 5-(1′-Isopropyl-6′-oxo-1′,6′-dihydro-[3,3′-bipyridin]-5-yl)-1-(2-methoxyethyl)-1H-pyrrolo[2,3-b]pyridin-2(3H)-one]	> 10000 nM	1700 nM	880 nM		1200 nM	> 10000 nM
		CC(C)n1cc(-c2cncc(-c3ccc4c(c3)NC(=O)C4(C)C)c2)ccc1=O [Example 32, 6-(1′-isopropyl-6′-oxo-1′,6′-dihydro-[3,3′-bipyridin]-5-yl)-3,3-dimethylindolin-2-one]	690 nM					280 nM
		COCCN1C(=O)Cc2cc(-c3cncc(-c4ccc(=O)n(C(C)C)c4)c3)ccc21 [Example 29, 5-(1′-Isopropyl-6′-oxo-1′,6′-dihydro-[3,3′-bipyridin]-5-yl)-1-(2-methoxyethyl)indolin-2-one]	6800 nM	140 nM	130 nM		150 nM	1600 nM
		Cc1cc(-c2cncc(-c3ccc4c(c3)CC(=O)N4C)c2)cn(C(C)C)c1=O [Example 3, 5-(5-(1-Isopropyl-5-methyl-6-oxo-1,6-dihydropyridin-3-yl)pyridin-3-yl)-1-methylindolin-2-one]	660 nM	97 nM	90 nM	50 nM	70 nM	
		CC1C(=O)Nc2cc(-c3cncc(-c4ccc(=O)n(C(C)C)c4)c3)ccc21 (centres unmarked) [Example 33, 6-(1′-isopropyl-6′-oxo-1′,6′-dihydro-[3,3′-bipyridin]-5-yl)-3-methylindolin-2-one]	2700 nM	180 nM	170 nM	330 nM	150 nM	760 nM
		CCn1cc(-c2cncc(-c3ccc4c(c3)CC(=O)N4C)c2)ccc1=O [Example 9, 5-(1′-ethyl-6′-oxo-1′,6′-dihydro-[3,3′-bipyridin]-5-yl)-1-methylindolin-2-one]	> 10000 nM	490 nM	460 nM	540 nM	400 nM	
		CC(C)n1cc(-c2cncc(-c3cc4c(cc3F)N(C)C(=O)C4)c2)ccc1=O [Example 31]	5300 nM	120 nM	100 nM	130 nM	90 nM	770 nM
		CC(C)n1cc(-c2cncc(-c3ccc4c(c3)CCC(=O)N4C)c2)ccc1=O [Example 28, 6-(1′-Isopropyl-6′-oxo-1′,6′-dihydro-[3,3′-bipyridin]-5-yl)-1-methyl-3,4-dihydroquinolin-2(1H)-one]	580 nM	31 nM	30 nM		20 nM	
		CCC(C)n1cc(-c2cncc(-c3ccc4c(c3)CC(=O)N4C)c2)ccc1=O (centres unmarked) [Example 7, 5-(1′-(sec-butyl)-6′-oxo-1′,6′-dihydro-[3,3′-bipyridin]-5-yl)-1-methylindolin-2-one]	4400 nM	230 nM	190 nM		170 nM	1200 nM
		Cc1cc(-c2cncc(-c3ccc(=O)n(C(C)C)c3)c2)cc2c1N(C)C(=O)C2 [Example 35, 5-(1′-isopropyl-6′-oxo-1′,6′-dihydro-[3,3′-bipyridin]-5-yl)-1,7-dimethylindolin-2-one]	5700 nM	110 nM	100 nM	140 nM	91 nM	630 nM
		CC(C)n1cc(-c2cncc(-c3ccc4c(c3)N(C)C(=O)C4)c2)ccc1=O [Example 26, 6-(1′-Isopropyl-6′-oxo-1′,6′-dihydro-[3,3′-bipyridin]-5-yl)-1-methylindolin-2-one]	> 10000 nM	710 nM	470 nM		590 nM	
		CCc1cc(-c2cncc(-c3ccc4c(c3)CC(=O)N4C)c2)cn(C(C)C)c1=O [Example 5, 5-(5′-Ethyl-1′-isopropyl-6′-oxo-1′,6′-dihydro-[3,3′-bipyridin]-5-yl)-1-methylindolin-2-one]	720 nM	140 nM	160 nM	60 nM	130 nM	900 nM
		CCC(CC)n1cc(-c2cncc(-c3ccc4c(c3)CC(=O)N4C)c2)ccc1=O [Example 4, 1-methyl-5-(6′-oxo-1′-(pentan-3-yl)-1′,6′-dihydro-[3,3′-bipyridin]-5-yl)indolin-2-one]	> 10000 nM	1300 nM	600 nM		650 nM	
		CC(C)n1cc(-c2cncc(-c3ccc4c(c3)CC(=O)N4)c2)ccc1=O [Example 34, 5-(5-(1-Isopropyl-6-oxo-1,6-dihydropyridin-3-yl)pyridin-3-yl)indolin-2-one]	3400 nM	300 nM	180 nM	190 nM	170 nM	1100 nM
		COCCCN1C(=O)Cc2cc(-c3cncc(-c4ccc(=O)n(C(C)C)c4)c3)ccc21 [Example 30, 5-(1′-isopropyl-6′-oxo-1′,6′-dihydro-[3,3′-bipyridin]-5-yl)-1-(3-methoxypropyl)indolin-2-one]	6000 nM					1500 nM
		CC(C)Cn1cc(-c2cncc(-c3ccc4c(c3)CC(=O)N4C)c2)ccc1=O [Example 14, 5-(1′-isobutyl-6′-oxo-1′,6′-dihydro-[3,3′-bipyridin]-5-yl)-1-methylindolin-2-one]	9100 nM	740 nM	480 nM	680 nM	510 nM	4600 nM
